Source: patent publication US8507562B2, “Synthesis of (1)-beta-elemene, (-)-beta-elemenal, (-)-beta-elemenol, (-)-beta-elemene fluoride and their analogues, intermediates, and composition and uses thereof” (HYWE Pharmaceuticals, Inc., priority 2004, dated 2013)
Read-outs that look alike come from different tables or passages of the source.

Tests used:
A-172 brain tumor = experiment: MTT survival assay; type: cell-based, human; conditions: A172, 72 h
Description: (§2) The MTT assay is a commonly used method in evaluation of cell survival, based on the ability of viable cells to convert MTT, a soluble tetrazolium salt [3-(4,5-dimethylthuazole-2-yl)-2,5 diphenyl tetrazolium bromide], into an insoluble formazan precipitate, which is quantitated by spectrophotometry following solubilization in dimethyl sulfoxide (DMSO).
The cells were then solubilized in 125 μl of DMSO and absorbance readings were taken using a 96-well Opsys MRI Microplate Reader (ThermoLabsystems; Chantilly, Va.). The amount of MTT dye reduction was calculated based on the difference between absorbance at 570 nm and at 630 nm. Cell viability in treated cells was expressed as the amount of dye reduction relative to that of untreated control cells. The wells which contained only medium and 10 μl of MTT were used as blanks for the plate reader. Three sets of experiments were performed in 8-12 wells for each treatment.
The cells were then solubilized in 125 μl of DMSO and absorbance readings were taken using a 96-well Opsys MRI Microplate Reader (ThermoLabsystems; Chantilly, Va.). The amount of MTT dye reduction was calculated based on the difference between absorbance at 570 nm and at 630 nm. Cell viability in treated cells was expressed as the amount of dye reduction relative to that of untreated control cells. The wells which contained only medium and 10 μI of MTT were used as blanks for the plate reader. Three sets of experiments were performed in 8-12 wells for each treatment.

[1] = test system: Colon Cancer Cells Caco-2; experiment: MTS cell viability assay; type: cell-based, human; conditions: combinations with Elemene 100 μg/ml, n = 8
Description: Cells were maintained at 37° C. in a humidified atmosphere including 5% CO2. […] Drugs were dissolved in 100% DMSO and then diluted in medium for experiments.

[2] = test system: human glioma G-422 (xenograph under skin); experiment: Xenograph under skin, injection directly into tumor; type: in vivo, mice; conditions: for Tumor Weight X ± SD: in g (unit assumed)
Description: (§1) The mice were killed after 3 weeks.

[3] = test system: human glioma SHG-44G (xenograph under skin); experiment: as above; type: in vivo, nude mice; conditions: for Tumor Weight X ± SD: in g (unit assumed)
Description: as §1
Nude mice grew on the cengliu rack.

[4] = Chronic toxicity study, 28 days i.v.; type: in vivo; conditions: Beagle dogs
A549 lung cancer = experiment: MTT survival assay; conditions: 2 × 10^4 cells/ml
Description: as §2
In brief, carcinoma cells treated with test articles alone, in 96-well tissue culture dishes were incubated with MTT (2 μg/ml) for 4 h. The cells were then solubilized in 125 μl of DMSO and absorbance readings were taken using a 96-well Opsys MRI Microplate Reader (ThermoLabsystems; Chantilly, Va.). The amount of MTT dye reduction was calculated based on the difference between absorbance at 570 nm and at 630 nm. Cell viability in treated cells was expressed as the amount of dye reduction relative to that of untreated control cells. The wells that contained only medium and 10 μl of MTT were used as blanks for the plate reader.

[5] = test system: Non-small-cell lung cancer (NSCLC) cell lines; experiment: Mechanism in NSCLC cells

(−)-Beta-elemene
IC50 (A-172 brain tumor): 80 µg/mL | IC50 ([1]; Caco-2, 4 hr/24 hr × 2): 91.0 ± 7.55 µg/mL | IC50 ([1]; Caco-2, 4 hr/24 hr × 3): 81.1 ± 10.3 µg/mL | IC50 ([1]; Caco-2, 4 hr/24 hr): 108 ± 2.55 µg/mL | IC50 ([1]; Caco-2, 4 hr): 171 ± 16.0 µg/mL | IC50 ([1]; Caco-2, 8 hr): 167 ± 32.9 µg/mL | IC50 ([1]; Caco-2, 12 hr): 104 ± 10.7 µg/mL | IC50 ([1]; Caco-2, 24 hr): 107 ± 6.00 µg/mL | IC50 ([1]; Caco-2, 48 hr): 91.0 ± 7.51 µg/mL | IC50 ([1]; Caco-2, 72 hr): 89.1 ± 9.08 µg/mL | Inhibition Rate % ([2]; 15 mg/kg it × 10 qd): 32.00% | Tumor Weight X ± SD ([2]; 15 mg/kg it × 10 qd): 1.53 ± 0.27 | Inhibition Rate % ([2]; 30 mg/kg it × 10 qd): 47.11% | Tumor Weight X ± SD ([2]; 30 mg/kg it × 10 qd): 1.19 ± 0.55 | Inhibition Rate % ([2]; 60 mg/kg it × 10 qd): 60.89% | Tumor Weight X ± SD ([2]; 60 mg/kg it × 10 qd): 0.88 ± 0.24 | Inhibition Rate % ([3]; 15 mg/kg it × 10 qd): 37.83% | Tumor Weight X ± SD ([3]; 15 mg/kg it × 10 qd): 1.15 ± 0.33 | Inhibition Rate % ([3]; 30 mg/kg it × 10 qd): 51.35% | Tumor Weight X ± SD ([3]; 30 mg/kg it × 10 qd): 0.90 ± 0.17 | Inhibition Rate % ([3]; 60 mg/kg it × 10 qd): 63.24% | Tumor Weight X ± SD ([3]; 60 mg/kg it × 10 qd): 0.68 ± 0.19 | side effects, high dose group ([4]; 75 mg/kg/d i.v., 28 days): nausea, vomiting, appetite loss, weight loss, saliva dripping and other side effects | pathology changes, low and medium dose groups ([4]; 15 and 30 mg/kg/d i.v., 28 days): No significant pathology changes related to drug | non-toxic dose ([4]; i.v., 28 days consecutively): 15 mg/kg | Inhibition Rate % (human lung cancer A549; 12.5 mg/kg/time iv × 10 bid): 31.28% | Tumor Weight (g) X ± SD (human lung cancer A549; 12.5 mg/kg/time iv × 10 bid): 1.34 ± 0.10 g | Tumor Weight (g) X ± SD (human lung cancer A549; 25 mg/kg/time iv × 10 bid): 1.17 ± 0.09 g | Inhibition Rate % (human lung cancer A549; 25 mg/kg/time iv × 10 bid, listed as β-Elemene): 40.0% | Inhibition Rate % (human lung cancer A549; 50 mg/kg/time iv × 10 bid): 43.08% | Tumor Weight (g) X ± SD (human lung cancer A549; 50 mg/kg/time iv × 10 bid): 1.11 ± 0.08 g | Inhibition Rate % (human liver cancer QGY; 12.5 mg/kg/time iv × 10 bid): 30.92% | Tumor Weight (g) X ± SD (human liver cancer QGY; 12.5 mg/kg/time iv × 10 bid): 1.43 ± 0.12 g | Inhibition Rate % (human liver cancer QGY; 25 mg/kg/time iv × 10 bid): 37.20% | Tumor Weight (g) X ± SD (human liver cancer QGY; 25 mg/kg/time iv × 10 bid): 1.30 ± 0.18 g | Inhibition Rate % (human liver cancer QGY; 50 mg/kg/time iv × 10 bid): 45.89% | Tumor Weight (g) X ± SD (human liver cancer QGY; 50 mg/kg/time iv × 10 bid): 1.12 ± 0.19 g | IC50 (A549 lung cancer; A549, 24 h): 62.0 µg/mL | IC50 (A549 lung cancer; A549, 48 h): 55.6 µg/mL | IC50 (A549 lung cancer; A549, 72 h): 56.4 µg/mL | apoptosis [5]: triggered apoptosis | cell cycle effect [5]: arrest NSCLC cells at cell cycle G2-M phase
